Test results reported in US12606805B2, “Tymovirus virus and virus-like particles as nanocarriers for imaging and therapeutic agents” (priority 2017, dated 2026).

Assays:
[1] = biological target: T1, PhMV-derived VLPs (Physalis mottle virus, UniProt P36351); details: for Number of molecules loaded per VLP: 5000-fold molar excess per particle; for Number of guest molecules loaded per VLP (affinity of the VLPs): infusion overnight at room temperature, molar excess 500 to 10,000 per VLP
T1 construct: The coat protein gene (564 bp) was inserted into the vector pRSET-A and expressed in ClearColi BL21(DE3); made in house; host or cells: E. coli ClearColi BL21(DE3)
Procedure: The VLPs were loaded with rhodamine B, fluorescein, crystal violet, MTX dihydrochloride (all Sigma-Aldrich), PS (cationic zinc ethynylphenyl porphyrin, full name 5-(4-ethynylphenyl)-10,15,20-tris)4-methylpyridin-4-ium-1-yl)porphyrin zinc(II) triiodide), or DOX hydrochloride (Indofine Chemical Company). The VLPs (1 mg/mL in KP buffer) were incubated with a molar excess of 500, 2500, 5000, or 10000 cargo molecules per particle overnight at room temperature in the dark, before purification over a 30% (w/v) sucrose cushion to remove excess reagents by ultracentrifugation at 52,000 rpm using a TLA 55 rotor (Beckman Coulter Inc.) at 4° C. for 1 h. PS-PhMV and DOX-PhMV were synthesized for further characterization using a 5000-fold molar excess.
A NanoDrop 2000 spectrophotometer (Thermo Fisher Scientific) was used to characterize the UV/visible spectra of native and modified VLPs. The dye load was determined using the protein concentration (measured using the Bradford assay), the Beer-Lambert law and the following dye-specific extinction coefficients: rhodamine B, F(553 nm)=116,000 M^−1 cm^−1; DOX, ε(496 nm)=11,500 M^−1 cm^−1; crystal violet, ε(590 nm)=87,000 M^−1 cm^−1; PS, ε(450 nm)=195,000 M^−1 cm^−1; MTX, ε(622 nm)=25,000 M^−1 cm^−1; sulfo-Cy5 NHS ester, ε(646 nm)=271,000 M^−1 cm^−1; Cy5.5-maleimide, 8(673 nm)=209,000 M^−1 cm^−1. The following molecular weights were used: PhMV=4.7×10^6 g mol^−1; rhodamine B=479.02 g mol^−1; DOX=579.98 g mol^−1; crystal violet=407.98 g mol^−1; PS=1130 g mol^−1; mitoxantrone=517.4 g mol^−1; Cy5=777.95 g mol^−1; Cy5.5=741.36 g mol^−1; Biotin NHS ester=341.38 g mol^−1; Biotin maleimide=451.54 g mol^−1.
Intact VLPs were incubated in a bathing solution containing the guest molecule at various molar excesses (500, 2500, 5000 and 10,000 molecules per VLP) in KP buffer with 10% (v/v) DMSO overnight at room temperature. After the reaction, excess guest molecules were removed by ultracentrifugation and the amount of protein and cargo was quantified by the Bradford assay and UV/visible spectroscopy, respectively. We applied the Beer-Lambert law and the specific extinction coefficient of each guest molecule to determine the number of cargo molecules per VLP (FIG. 5).

[2] = system: A2780 (human ovarian cancer) cells; assay: MTT cell viability assay, DOX-PhMV versus DOX; type: cell-based; details: 24 h
Procedure: All assays were carried out at least three times.

[3] = system: PC-3 cells; assay: LIVE/DEAD assay after photodynamic therapy; type: cell-based, human
Procedure: PC-3 cells were seeded (20,000 cells/500 μL RPMI/well) in a 24-well plate overnight. The cells were washed twice in PBS and incubated for 8 h in triplicates with 5.0 μM PS, 5.0 μM PS-PhMV, or the corresponding concentration of unloaded VLPs ([…] or ˜0.19 mg/mL). After washing twice in PBS, 500 μL RPMI medium was added. Photodynamic therapy was then applied using a white light source (Phillips Silhouette High Output F39T5/841 HO, Alto collection, ˜10 mW cm^−2) for 30 min (18.1 J cm^−2 at 430 nm) and cells were incubated for a further 48 h in the dark. Cell viability was determined using a LIVE/DEAD assay for mammalian cells (Thermo Fisher Scientific) following the manufacturer's procedures for cell staining, and cells were observed under a Zeiss Axio Observer Z1 motorized FL inverted microscope.

[4] = system: PC-3 cells; assay: MTT cell viability assay after photodynamic therapy
Procedure: PC-3 cells were seeded (5000 cells/100 μL RPMI 1640/well) in a 96-well plate overnight. After two PBS washes to remove unbound and dead cells, free PS, or PS-PhMV was added to the cells in triplicate at concentrations of 0.01, 0.025, 0.05, 0.1, 0.25, 0.5, 1, 2.5 and 5.0 μM PS, and incubated for 8 h. Untreated cells and cells treated with unloaded VLPs at the equivalent protein concentration to PS-PhMV particles at the highest dose of PS were also used as controls. Free particles were washed with PBS and 100 μL of fresh medium was added. The cells were then illuminated with white light for 30 min as above. In parallel, a duplicate plate was prepared and kept in the dark as a negative control. Following phototherapy, cells were incubated for another 48 h in the dark, and their viability was subsequently measured using an MTT cell proliferation assay kit (ATCC) based on the manufacturer's instructions. A Tecan Infinite 200 PRO multimode plate reader was used to measure absorbance at 570 nm, and the percent cell viability was normalized to the untreated control. All assays were carried out at least three times.

T1 sequence (P36351 whole entry, the tested form may be a part): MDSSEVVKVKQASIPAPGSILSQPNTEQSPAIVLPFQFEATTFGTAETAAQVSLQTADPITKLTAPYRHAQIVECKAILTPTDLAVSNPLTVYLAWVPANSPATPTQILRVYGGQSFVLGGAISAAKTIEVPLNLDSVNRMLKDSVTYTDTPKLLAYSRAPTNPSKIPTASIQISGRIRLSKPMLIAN

Compound | Number of molecules loaded per VLP [1] | Number of guest molecules loaded per VLP (affinity of the VLPs) [1] [molecules per particle] | further results
COc1cccc2c1C(=O)c1c(O)c3c(c(O)c1C2=O)C[C@@](O)(C(=O)CO)C[C@@H]3O[C@H]1C[C@H](N)[C@H](O)[C@H](C)O1 [DOX, doxorubicin] | 600-800 molecules per VLP | 750 | IC50 (MTT) [2]: equivalent
C#Cc1ccc(C2=C3C=CC(=N3)C(c3cc[n+](C)cc3)=c3ccc4[n]3[Zn][n]3c2ccc3C(c2cc[n+](C)cc2)=C2C=CC(=N2)C=4c2cc[n+](C)cc2)cc1.[I-].[I-].[I-] [PS] | 160-180 molecules per VLP | ~200 | Cell viability (LIVE/DEAD), dark controls ([3]; 5.0 μM, 8 h, maintained in the dark): 100%; Cell viability (LIVE/DEAD), illuminated ([3]; 5.0 μM, 8 h, white light 30 min): 0%; Cytotoxicity of dark controls (LIVE/DEAD) ([3]; dark controls): no cytotoxicity; Cytotoxicity of dark controls (MTT) ([4]; PC-3 cells kept in the dark): no cell killing; IC50 ([4]; read-out: IC50 (cell killing, MTT), PC-3 cells, 8 h incubation, 30 min white light illumination): 0.05 µM
O=C1c2c(O)ccc(O)c2C(=O)c2c(NCCNCCO)ccc(NCCNCCO)c21 [MTX, mitoxantrone] |  | 450 | 
CN(C)c1ccc(C(=C2C=CC(=[N+](C)C)C=C2)c2ccc(N(C)C)cc2)cc1 [crystal violet] |  | 2000 | 
CCN(CC)c1ccc2c(-c3ccccc3C(=O)O)c3ccc(=[N+](CC)CC)cc-3oc2c1.[Cl-] [rhodamine B] |  | ~200 | 
